# Results reported in patent publication US20220380341A1, “INHIBITORS OF HIV-1 NEF FOR THE TREATMENT OF HIV DISEASE” (priority 2018, published 2022).
# Like-named read-outs stand apart in the source and are kept apart here.
# What was measured:
# TZM-bl cell line = type: cell-based
# Outline: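 Luciferase read-out 48 h post-infection; compound at 1 μM during HIV-1NL4-3 infection of TZM-bl cells. Percent inhibition scaled to DMSO wild-type virus (0%) and DMSO Nef-defective virus (100% of Nef-dependent effect). Viability checked separately in uninfected cells by Cell Titer Blue.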
# HIV-1NL4-3 = experiment: HIV-1 infectivity assay in TZM-bl reporter cell line (LTR-luciferase, 48 h); type: cell-based; conditions: for inhibition at 1 µM: Human immunodeficiency virus 1, TZM-bl
# Outline: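 TZM-bl cells (HIV-1 LTR-luciferase) infected with HIV-1NL4-3 with compound at 1 μM; luciferase read 48 h later. Percent inhibition normalized to DMSO wild-type infection (0%) and Nef-defective HIV-1 infection (100% of Nef-dependent effect). Viability in uninfected TZM-bl cells by Cell Titer Blue.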
# HIV-1 NefNL4-3 = HIV-1 NefNL4-3 (Human immunodeficiency virus type 1 group M subtype B, UniProt P03406, A33V/T15A/T51N/V11I); experiment: Surface plasmon resonance binding to recombinant full-length Nef (NL4-3); conditions: for RU30/RUNef (extent of binding): response units at 30 μM relative to Nef immobilized on the SPR chip
# [1] = 48 h, Table 1, TZM-bl cells, 1 μM, 48 h, 100% = Nef-defective HIV-1, read-out: HIV-1 Infectivity % Inhibition Norm. to Δ-Nef @ 1 μM
# [2] = 1.0 μM, TZM-bl reporter cell line, Table 4, read-out: % Infectivity Inhibition
# [3] = KD, M, Table 4, SPR fit 2-step induced fit, KD = koff/kon × koff2/(koff2 + kon2)
# [4] = Nef NL4-3 Binding, SPR 2-state fitting KD, Table 1, 2-step induced-fit model
# [5] = Table 1, 1:1 Langmuir fit where the KD2 cell says '1 to 1 fitting', else 2-site fit
# [6] = Table 4, 1:1 Langmuir fit, T = 1/koff
# [7] = KD, M, Table 4, SPR fit 1:1 Langmuir, KD = koff/kon
# [8] = Table 4, 2-step induced fit, T = 1/koff2
Structure (SMILES),"Percent Viability @ 1 μM (TZM-bl cells) (TZM-bl cell line; human, 1 μM) [%]",inhibition at 1 µM (HIV-1NL4-3; [1]) [%],Kd (HIV-1 NefNL4-3) [µM],"% Cell Viability (TZM-bl cell line; human, 1 μM) [%]",inhibition at 1 µM (HIV-1NL4-3; [2]) [%],RU30/RUNef (extent of binding) (HIV-1 NefNL4-3) [E- 03],also measured
"CC(C)(O)C(=O)N1CCCC1c1nn(-c2nc3ccccc3[nH]2)c(O)c1CCc1ccc(F)cc1 (stereo not drawn) [Compound I-761, 1-{2-[1-(1H-1,3-benzodiazol-2-yl)-4-[2-(4-fluorophenyl)ethyl]-5-hydroxy-1H-pyrazol-3-yl]pyrrolidin-1-yl}-2-hydroxy-2-methylpropan-1-one]",101.5,-3.8,0.854,–,–,–,–
"O=C(c1c(O)cc(O)cc1O)N1CCCC1c1nn(-c2nc3ccccc3[nH]2)c(O)c1CCc1ccc(F)cc1 (stereo not drawn) [Compound I-762, 2-{2-[1-(1H-1,3-benzodiazol-2-yl)-4-[2-(4-fluorophenyl)ethyl]-5-hydroxy-1H-pyrazol-3-yl]pyrrolidine-1-carbonyl}benzene-1,3,5-triol]",98.9,25.7,0.277,98.6,25.7,–,"Kd (HIV-1 NefNL4-3; [3]): 0.00398 µM; Kd (HIV-1 NefNL4-3; [4]): 0.00398 µM; Kd (HIV-1 NefNL4-3; read-out: Nef NL4-3 Binding, SPR 1:1 or 2-site fitting KD2, Table 1, 2-site fit, second component): 7.46 µM"
"O=C(CN1CCOCC1)N1CCCC1c1nn(-c2nc3ccccc3[nH]2)c(O)c1CCc1ccc(F)cc1 (stereo not drawn) [Compound I-763, 1-{2-[1-(1H-1,3-benzodiazol-2-yl)-4-[2-(4-fluorophenyl)ethyl]-5-hydroxy-1H-pyrazol-3-yl]pyrrolidin-1-yl}-2-(morpholin-4-yl)ethan-1-one]",97.6,11,0.422,–,–,–,–
"O=C(OCc1ccccc1)N1CCC(Cc2nn(-c3nc4ccccc4[nH]3)c(O)c2CCc2ccc(F)cc2)CC1 [Compound I-764, benzyl4-{[1-(1H-1,3-benzodiazol-2-yl)-4-[2-(4-fluorophenyl)ethyl]-5-hydroxy-1H-pyrazol-3-yl]methyl}piperidine-1-carboxylate]",100.6,47.4,–,–,–,–,"Nef NL4-3 Binding, SPR 1:1 or 2-site fitting KD1 (HIV-1 NefNL4-3; [5]): No Interaction"
"O=C(C1CCOC1)N1CCC(Cc2nn(-c3nc4ccccc4[nH]3)c(O)c2CCc2ccc(F)cc2)CC1 (stereo not drawn) [Compound I-765, 1-(1H-1,3-benzodiazol-2-yl)-4-[2-(4-fluorophenyl)ethyl]-3-{[1-(oxolane-3-carbonyl)piperidin-4-yl]methyl}-1H-pyrazol-5-ol]",99.3,13.5,–,–,–,–,"Nef NL4-3 Binding, SPR 1:1 or 2-site fitting KD1 (HIV-1 NefNL4-3; [5]): No Interaction"
"O=C(c1cccc(O)n1)N1CCC(Cc2nn(-c3nc4ccccc4[nH]3)c(O)c2CCc2ccc(F)cc2)CC1 [Compound I-766, 6-(4-{[1-(1H-1,3-benzodiazol-2-yl)-4-[2-(4-fluorophenyl)ethyl]-5-hydroxy-1H-pyrazol-3-yl]methyl}piperidine-1-carbonyl)pyridin-2-ol]",99.5,46.9,0.481,–,–,–,–
"O=C(c1cnccn1)N1CCC(Cc2nn(-c3nc4ccccc4[nH]3)c(O)c2CCc2ccc(F)cc2)CC1 [Compound I-767, 1-(1H-1,3-benzodiazol-2-yl)-4-[2-(4-fluorophenyl)ethyl]-3-{[1-(pyrazine-2-carbonyl)piperidin-4-yl]methyl}-1H-pyrazol-5-ol]",97.6,18.9,0.425,–,–,–,–
"CN1CCN(CC(=O)N2CCC(Cc3nn(-c4nc5ccccc5[nH]4)c(O)c3CCc3ccc(F)cc3)CC2)CC1 [Compound I-768, 1-(4-{[1-(1H-1,3-benzodiazol-2-yl)-4-[2-(4-fluorophenyl)ethyl]-5-hydroxy-1H-pyrazol-3-yl]methyl}piperidin-1-yl)-2-(4-methylpiperazin-1-yl)ethan-1-one]",99.8,-34.5,3.84,–,–,–,–
"O=C(COCc1ccncc1)N1CCC(Cc2nn(-c3nc4ccccc4[nH]3)c(O)c2CCc2ccc(F)cc2)CC1 [Compound I-769, 1-(4-{[1-(1H-1,3-benzodiazol-2-yl)-4-[2-(4-fluorophenyl)ethyl]-5-hydroxy-1H-pyrazol-3-yl]methyl}piperidin-1-yl)-2-[(pyridin-4-yl)methoxy]ethan-1-one]",–,–,–,–,–,4.88,"% Cell Viability (TZM-bl cell line; 1.0 μM, uninfected TZM-bl, CellTiter-Blue, Table 4): 98.8%; Percent Viability @ 1 μM (TZM-bl cells) (TZM-bl cell line; Table 1, uninfected TZM-bl cells, 1 μM, Cell Titer Blue): 98.8%; % Infectivity Inhibition (HIV-1NL4-3; 1.0 μM, TZM-bl reporter cell line, Table 4): 26.5%; HIV-1 Infectivity % Inhibition Norm. to Δ-Nef @ 1 μM (HIV-1NL4-3; Table 1, TZM-bl cells, 1 μM, 48 h, 100% = Nef-defective HIV-1): 26.5%; Kd (HIV-1 NefNL4-3; Table 1, 1:1 Langmuir fit where the KD2 cell says '1 to 1 fitting', else 2-site fit, read-out: Nef NL4-3 Binding, SPR 1:1 or 2-site fitting KD1): 0.798 µM; T, minutes (residence time) (HIV-1 NefNL4-3; [6]): 9.47E + 00 minutes; Kd (HIV-1 NefNL4-3; Table 4, SPR fit 1:1 Langmuir, KD = koff/kon, read-out: KD): 0.798 µM"
CC(C)(C)OC(=O)N1CCC(Cc2nn(-c3nc4ccccc4[nH]3)c(O)c2CCc2ccc(F)cc2)CC1 [Compound I-770],99.7,49.2,0.00105,99.7,49.2,3.04,"Kd (HIV-1 NefNL4-3; [7]): 0.00105 µM; T, minutes (residence time) (HIV-1 NefNL4-3; [6]): 1.65E + 04 minutes"
"CS(=O)(=O)N1CCC(Cc2nn(-c3nc4ccccc4[nH]3)c(O)c2CCc2ccc(F)cc2)CC1 [Compound I-771, 1-(1H-1,3-benzodiazol-2-yl)-4-[2-(4-fluorophenyl)ethyl]-3-[(1-methanesulfonylpiperidin-4-yl)methyl]-1H-pyrazol-5-ol]",100.1,13.1,0.965,–,–,–,–
"CC(=O)N1CCC(Cc2nn(-c3nc4ccccc4[nH]3)c(O)c2CCc2ccc(F)cc2)CC1 [Compound I-772, 1-(4-{[1-(1H-1,3-benzodiazol-2-yl)-4-[2-(4-fluorophenyl)ethyl]-5-hydroxy-1H-pyrazol-3-yl]methyl}piperidin-1-yl)ethan-1-one]",100.1,49.6,0.858,–,–,–,–
"O=C(OCc1ccccc1)N1CCCC(Cc2nn(-c3nc4ccccc4[nH]3)c(O)c2CCc2ccc(F)cc2)C1 (stereo not drawn) [Compound I-773, benzyl 3-{[1-(1H-1,3-benzodiazol-2-yl)-4-[2-(4-fluorophenyl)ethyl]-5-hydroxy-1H-pyrazol-3-yl]methyl}piperidine-1-carboxylate]",101.8,25.5,0.0559,–,–,–,–
"O=S(=O)(NCc1nn(-c2nc3ccccc3[nH]2)c(O)c1CCc1ccc(F)cc1)c1cccnc1 [Compound I-774, N-{[1-(1H-1,3-benzodiazol-2-yl)-4-[2-(4-fluorophenyl)ethyl]-5-hydroxy-1H-pyrazo1-3-y1]methyl}pyridine-3-sulfonamide]",94.4,-0.1,0.252,94.4,0,2.56,"Kd (HIV-1 NefNL4-3; [3]): 0.0275 µM; Kd (HIV-1 NefNL4-3; [4]): 0.0275 µM; T, minutes (residence time) (HIV-1 NefNL4-3; [8]): 1.09E + 02 minutes"
"CS(=O)(=O)N1CCC(CCc2c(-c3ccc(C(F)(F)F)cn3)nn(-c3nc4cc(Br)ccc4[nH]3)c2O)CC1 [Compound I-775, 1-(5-bromo-1H-1,3-benzodiazol-2-yl)-4-[2-(1-methanesulfonylpiperidin-4-yl)ethyl]-3-[5-(trifluoromethyl)pyridin-2-yl]-1H-pyrazol-5-ol]",72.9,62.1,0.316,72.9,62.1,1.62,"Kd (HIV-1 NefNL4-3; [7]): 0.316 µM; T, minutes (residence time) (HIV-1 NefNL4-3; [6]): 4.26E + 01 minutes"
"CC(C)(O)C(=O)N1CCC(CCc2c(-c3cccc(S(C)(=O)=O)c3)nn(-c3nc4ccccc4[nH]3)c2O)CC1 [Compound I-776, 1-(4-{2-[1-(1H-1,3-benzodiazol-2-yl)-5-hydroxy-3-(3-methanesulfonylphenyl)-1H-pyrazol-4-yl]ethyl}piperidin-1-yl)-2-hydroxy-2-methylpropan-1-one]",97.1,19.3,0.393,97.1,19.3,5.14,"Kd (HIV-1 NefNL4-3; [3]): 1.2 µM; Kd (HIV-1 NefNL4-3; [4]): 1.2 µM; T, minutes (residence time) (HIV-1 NefNL4-3; [8]): 1.06E + 01 minutes"
"CC(C)(O)C(=O)N1CCC(Cc2nn(-c3nc4ccccc4[nH]3)c(O)c2CCc2ccc(F)cc2)CC1 [Compound I-777, 1-(4-{[1-(1H-1,3-benzodiazol-2-yl)-4-[2-(4-fluorophenyl)ethyl]-5-hydroxy-1H-pyrazol-3-yl]methyl}piperidin-1-yl)-2-hydroxy-2-methylpropan-1-one]",97.0,-3.6,0.997,97.0,0,2.23,"Kd (HIV-1 NefNL4-3; [7]): 0.997 µM; T, minutes (residence time) (HIV-1 NefNL4-3; [6]): 3.50E + 00 minutes"
"CC(=O)N1CCCC(Cc2c(C3CC3)nn(-c3nc4ccccc4[nH]3)c2O)C1 (stereo not drawn) [Compound I-780, 1-(3-{[1-(1H-1,3-benzodiazol-2-yl)-3-cyclopropyl-5-hydroxy-1H-pyrazol-4-yl]methyl}piperidin-1-yl)ethan-1-one]",–,–,–,99,0,4.47,"Kd (HIV-1 NefNL4-3; [7]): 4.07 µM; T, minutes (residence time) (HIV-1 NefNL4-3; [6]): 8.13E + 00 minutes"
